Laboratory results: patent US10752616B2, “Bicycloheteroaryl-heteroaryl-benzoic acid compounds as retinoic acid receptor beta (RARβ) agonists” (King's College London, priority 2014, dated 2020)
Read-outs that look alike come from different tables or passages of the source.

Assays:
RARα [1] = biological target: T1, RARα (Mus musculus (Mouse), UniProt P11416); assay: Transactivation assay for RARα (gal4-RAR fusion, pFR-luc reporter, COS-7 cells), Table 2; assay type: cell-based; conditions: for EC50: Table 2, COS-7 reporter, mean of three or more determinations, inactive = no agonist action at highest concentration tested
T1 sequence (P11416 183-417): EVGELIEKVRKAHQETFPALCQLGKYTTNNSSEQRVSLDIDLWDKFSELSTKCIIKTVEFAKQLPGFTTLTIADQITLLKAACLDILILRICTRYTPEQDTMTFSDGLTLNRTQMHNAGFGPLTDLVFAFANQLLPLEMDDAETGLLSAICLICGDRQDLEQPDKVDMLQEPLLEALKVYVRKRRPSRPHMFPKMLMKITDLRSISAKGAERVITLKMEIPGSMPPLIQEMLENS
Experimental: (§1) Transcriptional transactivation assays were performed with gal4 fusion receptor constructs, created using each of the RAR ligand binding domains of either mouse or human, co-transfected with the pFR-luc (Stratagene) reporter construct in COS-7 cells.
(§2) Briefly, on day 1, 96 well plates were seeded with 8000 cells per well then left to recover overnight. On day 2, the cells were co-transfected with 100 ng of reporter plasmid and 10 ng of the appropriate receptor plasmid per well using lipofectamine (Invitrogen). On day 3, the lipofectamine containing media was replaced by a DMEM without phenol red, followed by the addition of test compound dissolved in 1 μL of DMSO to each well's 100 μL total volume. Finally, on day 4, the cells were lysed and their luciferase substrate was provided by the BrightGlo™ reagent (Promega), the plates were then read on the MicroBeta TriLux™ (Perkin Elmer).
(§3) Data for test compounds are quoted as EC50 values. Where replicate data has been generated, the data are quoted as the mean EC50 from the separate experiments.
(§4) EC50's values are reported as mean values of three or more determinations.

RARα [2] = biological target: T1, RARα; assay: Transactivation assay, mouse RARα; assay type: cell-based; conditions: Table 3
Experimental: as §1, §2, §3

RARγ [3] = biological target: T2, RARγ (Mus musculus (Mouse), UniProt P18911); assay: Transactivation assay for RARγ (gal4-RAR fusion, pFR-luc reporter, COS-7 cells), Table 2; assay type: cell-based; conditions: for EC50: Table 2, COS-7 reporter, mean of three or more determinations, inactive = no agonist action at highest concentration tested
T2 sequence (P18911 185-419): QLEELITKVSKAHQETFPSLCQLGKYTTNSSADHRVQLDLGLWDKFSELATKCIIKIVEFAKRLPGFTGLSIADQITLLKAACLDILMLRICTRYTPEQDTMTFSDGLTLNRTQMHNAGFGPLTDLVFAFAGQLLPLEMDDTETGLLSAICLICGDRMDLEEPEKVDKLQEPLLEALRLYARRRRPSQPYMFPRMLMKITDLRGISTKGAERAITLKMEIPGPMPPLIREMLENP
Experimental: as §1, §2, §3, §4

RARβ [4] = biological target: T3, RARβ (Mus musculus (Mouse), UniProt P22605); assay: Transactivation assay for RARβ (gal4-RAR fusion, pFR-luc reporter, COS-7 cells), Table 2; assay type: cell-based; conditions: COS-7 reporter, mean of three or more determinations, species not stated (method: mouse or human)
T3 sequence (P22605 210-444): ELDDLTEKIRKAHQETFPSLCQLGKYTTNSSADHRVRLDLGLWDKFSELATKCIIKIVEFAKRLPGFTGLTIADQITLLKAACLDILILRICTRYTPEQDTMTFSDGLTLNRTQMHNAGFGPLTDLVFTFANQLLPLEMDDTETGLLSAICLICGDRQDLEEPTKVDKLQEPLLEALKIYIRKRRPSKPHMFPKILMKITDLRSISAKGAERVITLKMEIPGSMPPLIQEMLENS
Experimental: as §1, §2, §3, §4

RARγ [5] = biological target: T2, RARγ; assay: Transactivation assay, mouse RARγ; assay type: cell-based; conditions: Table 3
Experimental: as §1, §2, §3

RARα [6] = biological target: T4, RARα (Homo sapiens (Human), UniProt P10276); assay: Transactivation assay, human RARα; assay type: cell-based
Experimental: as §1, §2, §3
Target sequence in this assay (P10276 183-417): as the sequence (P11416 183-417) above, with K165R counted along it

RARβ [7] = biological target: RARβ (Homo sapiens (Human), UniProt P10826); assay: Transactivation assay, human RARβ; assay type: cell-based
RARβ (Homo sapiens (Human), UniProt P10826), sequence (P10826 183-417): as the sequence (P22605 210-444) above
Experimental: as §1, §2, §3

RARγ [8] = biological target: T5, RARγ (Homo sapiens (Human), UniProt P13631); assay: Transactivation assay, human RARγ; assay type: cell-based
Experimental: as §1, §2, §3
Target sequence in this assay (P13631 185-419): as the sequence (P18911 185-419) above

[9] = test system: rats with severed sensory roots; assay: Severed and re-implanted sensory roots (DRG, left forelimb) in rats; sticky tape tests; assay type: in vivo; conditions: rat, 1 mg/kg two days after lesion, then three times a week
Experimental: In another example of nerve injury, the four sensory roots from each of four DRG at the level of the left forelimb were severed and re-implanted into the spinal cord.
FIGS. 2A and 2B show two graphs of the time taken for rats to sense sticky tape (FIG. 2A) and to remove sticky tape (FIG. 2B) that is placed on its injured forepaw, as a function of the number of weeks after injury. Rats were treated with 1 mg/kg of the test compound or vehicle two days after lesion, and then three times a week for the period of the experiment. Error bars show SEM. ***P<0.001, students t test, n=3-4 rats for each treatment group. At weeks 3, 4, and 5, there was significant difference between the rats treated with RARβ agonist as compared to rats treated with other retinoid agonists and vehicle.

RARβ [10] = biological target: T3, RARβ; assay: Transactivation assay, mouse RARβ; assay type: cell-based; conditions: Table 3, read-out: RARβ potency - EC50
Experimental: as §1, §2, §3

cortex explants = assay: Neurite outgrowth from cultured cortex of treated lesioned animals; assay type: cell-based, rat; conditions: cortex from lesioned rats treated in vivo
Experimental: When pieces of cortex from these RARβ agonist treated animals were cultured, neurite outgrowth was observed, in contrast to cortex from control lesioned animals.
(§5) Cerebellar neurons isolated from post-natal day 3 rat pups were cultured over monolayers of parental 3T3 cells in control media, or media supplemented with a recombinant MAG-Fc chimera (R&D Systems) used at a final concentration of 20 μg/mL MAG-Fc. The monolayers were established for 24 hours prior to addition of the neurons and the co-cultures were maintained for approximately 21 hours. Following careful fixation with 4% paraformaldehyde, the neurons were immuno-stained with a GAP-43 antibody (from Graham Wilkin, Imperial College), dilution of 1:500, and the mean length of the longest neurite per cell was measured for approximately 120-150 neurons as previously described (see, e.g., Williams et al., 2005). DRG and cortical explants were obtained from adult rats, they were cultured in cellogen as previously described (see, e.g., Corcoran and Maden, 1999). Three explants per treatment were used. Neurite outgrowth was assessed 3 days later by immunohistochemistry with NF200 (Sigma, dilution of 1:200). The average lengths of the neurites were measured using image pro plus software. Media consisted of DMEM-F12 (Invitrogen) containing N2 (Invitrogen) supplemented with glucose (33 mM) and glutamine (2 mM).

RARγ [11] = biological target: T5, RARγ; conditions: Bernard et al., 1992; Delescluse et al., 1991; cited from earlier work
Target sequence in this assay (P13631 whole entry, species assumed): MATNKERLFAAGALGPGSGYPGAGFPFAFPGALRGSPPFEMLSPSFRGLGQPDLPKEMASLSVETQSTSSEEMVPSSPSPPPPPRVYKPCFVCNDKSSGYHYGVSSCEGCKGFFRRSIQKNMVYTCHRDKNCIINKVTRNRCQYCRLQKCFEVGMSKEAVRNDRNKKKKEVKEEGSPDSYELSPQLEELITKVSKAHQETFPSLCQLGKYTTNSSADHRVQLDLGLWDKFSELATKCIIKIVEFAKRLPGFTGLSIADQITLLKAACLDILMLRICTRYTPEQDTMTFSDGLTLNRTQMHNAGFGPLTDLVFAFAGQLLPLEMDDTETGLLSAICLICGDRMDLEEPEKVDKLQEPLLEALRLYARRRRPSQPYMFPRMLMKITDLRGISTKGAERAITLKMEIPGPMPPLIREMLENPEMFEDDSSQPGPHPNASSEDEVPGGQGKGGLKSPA

[12] = test system: rats with crushed corticospinal tract (CST); assay: Corticospinal tract (CST) crush at C4 in rats, i.c.v. treatment; tracing and behavioural tests; assay type: in vivo; conditions: rat
Experimental: FIGS. 1A and 1B show two graphs of the number of rat footslips as a function of the number of weeks after lesion, for grid task (FIG. 1A) and beam task (FIG. 1B).
All animal experiments were carried out under UK home office regulations. Dorsal column lesions were performed on adult male rats as previously described (see, e.g., Bradbury et al., 2002). […] The pumps were placed subcutaneously and connected to a brain infusion catheter (Alzet™), which was inserted into the lateral ventricle (Bregma coordinates: rostrocaudal: −0.8 mm, mediolateral: −1.5 mm and dorsoventral: −4.5 mm). […] The dose was based previous in vivo studies on activation of RARα and RARβ signalling in the adult rat brain (see, e.g., Goncalves et al., 2009). Animals which underwent behavioural studies and subsequent tracing (n=6 per treatment) were kept for six weeks before being sacrificed with a lethal injection of pentobarbital and transcardially perfused with 4% PFA. Dissected tissue (cervical and lumbar spinal cord) was processed for immunofluoresence.
Descendent corticospinal tract axons were anterogradely traced after the dorsal column crush was performed by injected BDA (10% in PBS, Mw10K from Molecular Probes) into the motor cortex as previously described (see, e.g., Yip et al., 2006). Six injections were done in the right cortex (0.5 μL of BDA/injection point). Animals (n=6 per treatment) were perfused and the spinal cord was transferred to PBS (plus 0.1% sodium azide) and embedded in gelatin (10%, 300 bloom; Sigma, Poole, UK). Gelatin blocks were hardened in 4% paraformaldehyde, and 40 μm free-floating serial transverse sections were cut on a vibratome (Leica, Nussloch, Germany) and collected in 24-well plates containing PBS (plus 0.1% sodium azide).
BDA was detected using the tyramide amplification kit (Perkin-Elmer) coupled with extra-avidin-FITC (Amersham Pharmacia Biotech, UK, 1:500). All BDA-labelled fibres observed within a 1-mm square grid were counted at measured intervals from 5 mm above to 5 mm below the lesion site by an experimenter, blinded to treatment.
CST neurons were labelled by retrograde tracing injecting 2 μL of 5% Fluorogold (FG, Molecular Probes) 2 mm deep into the cervical spinal cord (C3-C4) at a rate of 0.5 μL/minute (n=3 rats per group). In sham animals, FG was injected 0.5 mm bilateral to the medial line of spinal cord (1 μL per side), and in lesioned animals FG (2 μL) was injected into the injury. After 14 days, the cortices were fixed for 2 hours in 4% paraformaldehyde (PFA), embedded in OCT compound and stored frozen. Sagittal sections (12 μm) were cut and 4 sequential slides containing 2 sections from lateral 3.4-3.9 mm were taken for analysis (see, e.g., Paxinos and Watson, 2002).
Immunohistochemistry was carried out using anti-rabbit phospho-Akt (Cell Signalling technology, dilution of 1:100). Secondary antibody used was anti-rabbit Cy3 conjugated (Jackson, used at 1:1000). Images were captured at 100× magnification using a Roperscientific digital camera.
The behavioural tests were carried out as previously described (see, e.g., Bradbury et al., 2002). Rats (n=6 per treatment group) were first trained for two weeks before surgery to perform grid walk and beam walk; they were then tested by an observer blinded to the experimental treatment once a week for five weeks after lesion.

phospho-Akt = assay: Western blot of cerebellar cultures for phospho-Akt; assay type: cell-based, rat; conditions: cerebellar cultures treated with 1 μM
RARα [13] = biological target: T4, RARα; conditions: Bernard et al., 1992; Delescluse et al., 1991; cited from earlier work
Target sequence in this assay (P10276 whole entry, species assumed): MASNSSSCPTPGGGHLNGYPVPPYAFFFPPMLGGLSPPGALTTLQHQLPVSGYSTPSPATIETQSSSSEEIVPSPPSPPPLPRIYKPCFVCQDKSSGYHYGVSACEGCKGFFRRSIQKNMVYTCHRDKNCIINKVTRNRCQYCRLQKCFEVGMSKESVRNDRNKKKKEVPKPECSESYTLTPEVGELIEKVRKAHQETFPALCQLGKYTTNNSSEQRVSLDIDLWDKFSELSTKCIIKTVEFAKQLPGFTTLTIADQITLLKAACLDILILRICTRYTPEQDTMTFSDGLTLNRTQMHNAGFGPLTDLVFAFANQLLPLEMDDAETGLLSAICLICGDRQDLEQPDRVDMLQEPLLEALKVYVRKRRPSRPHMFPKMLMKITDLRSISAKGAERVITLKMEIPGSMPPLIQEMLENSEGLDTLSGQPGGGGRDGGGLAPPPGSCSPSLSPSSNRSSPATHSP

cerebellar neurons = assay: Neurite outgrowth assay, cerebellar neurons in the presence of myelin/MAG; assay type: cell-based, rat
Experimental: as §5

[14] = Table 3, Human, read-out: RARβ potency - EC50
[15] = i.c.v. 180 ng/kg/day for 14 days

**Q.** What does the source list for `Cc1ccc(C)c2oc(-c3nc(-c4ccc(C(=O)O)cc4)no3)cc12` [BHBA-001, 4-(5-(4,7-Dimethylbenzofuran-2-yl)-1,2,4-oxadiazol-3-yl)benzoic acid]?
**A.** EC50 (RARα [1]): 26 nM; Selectivity over RARα (RARα [2]): 14-fold; EC50 (RARγ [3]): 11 nM; EC50 (RARβ [4]): 1.94 nM; Selectivity over RARγ (RARγ [5]): 6-fold; Selectivity over RARα (RARα [6]; Table 3, Human): 23-fold; EC50 (RARβ [7]; [14]): 2.05 nM; Selectivity over RARγ (RARγ [8]; Table 3, Human): 5-fold; Behavioural tests after 5 weeks (severed sensory roots) [9]: performed as well as non-lesioned animals; EC50 (RARβ [10]): 1.94 nM

**Q.** With `Cc1ccc(C)c2oc(-c3nc(-c4ccc(C(=O)O)cc4Cl)no3)cc12` [BHBA-002, 3-Chloro-4-(5-(4,7-dimethylbenzofuran-2-yl)-1,2,4-oxadiazol-3-yl)benzoic acid] as the molecule, how does the EC50 (RARα [1]) read?
**A.** The EC50 was 136 nM.

**Q.** And the RARα/RARβ ratio (RARα [1]; fold-selectivity for RARβ over RARα, >1 = selective for RARβ)?
**A.** The RARα/RARβ ratio was 12.

**Q.** And the “Selectivity over RARα” value (RARα [2])?
**A.** Its value is 12-fold.

**Q.** And the EC50 (RARγ [3])?
**A.** Its EC50 is 29 nM.

**Q.** What about the RARγ/RARβ ratio (RARγ [3]; fold-selectivity for RARβ over RARγ, >1 = selective for RARβ) of the same molecule?
**A.** The RARγ/RARβ ratio was 2.5.

**Q.** And the EC50 (RARβ [4])?
**A.** Its EC50 is 11.4 nM.

**Q.** And the “Selectivity over RARγ” value (RARγ [5])?
**A.** The value was 3-fold.

**Q.** And the “Selectivity over RARα” value (RARα [6]; Table 3, Human)?
**A.** The value was 12-fold.

**Q.** What about the EC50 (RARβ [7]; [14]) of the same molecule?
**A.** The EC50 was 21.4 nM.

**Q.** And the “Selectivity over RARγ” value (RARγ [8]; Table 3, Human)?
**A.** Its value is 2-fold.

**Q.** And the EC50 (RARβ [10])?
**A.** Its EC50 is 11.5 nM.

**Q.** With `COc1ccc(-c2ccc3cc(C(=O)O)ccc3c2)cc1C1(C)CCCCC1` [CD2019, 6-(4-methoxy-3-(1-methylcyclohexyl)phenyl)-2-naphthalenecarboxylic acid] as the molecule, how does the “Axon/neurite outgrowth from cultured adult cortex of treated animals” value (cortex explants) read?
**A.** Its value is “did grow”.

**Q.** And the “Selectivity RARβ over RARγ” value (RARγ [11])?
**A.** The value was 12 fold.

**Q.** What about the “Phospho AKT in the injured CST neurons in vivo” value [12] of the same molecule?
**A.** The value was “induced”.

**Q.** And the “BDA labelled CST axons crossing the lesion site” value ([12]; after 5 weeks)?
**A.** Its value is “many axons were observed crossing the injury site”.

**Q.** What about the “RARβ2 expression in CST neuronal cell bodies” value ([12]; applied to the lateral ventricle for 2 weeks) of the same molecule?
**A.** Its value is “upregulation of RARβ 2”.

**Q.** What about the “Behavioural tests after 5 weeks (CST lesion)” value ([12]; grid walk and beam walk) of the same molecule?
**A.** The value was “performed as well as non-lesioned animals”.

**Q.** And the “Functional recovery of the forelimb in beam task (footslips), time of recovery” value [12, 15]?
**A.** Its value is 2 weeks post lesion.

**Q.** And the “Functional recovery of the forelimb in grid task (footslips), time of recovery” value [12, 15]?
**A.** Its value is 4 weeks post lesion.

**Q.** What about the “Selectivity over RARα” value (RARα [6]; Table 1, all human data) of the same molecule?
**A.** The value was 11-fold.

**Q.** What about the EC50 (RARβ [7]; Table 1, all human data, read-out: RARβ potency EC50) of the same molecule?
**A.** The EC50 was 0.83 nM.

**Q.** And the “Selectivity over RARγ” value (RARγ [8]; Table 1, all human data)?
**A.** The value was 1.9-fold.

**Q.** What about the “Behavioural tests after 5 weeks (severed sensory roots)” value [9] of the same molecule?
**A.** The value was “performed as well as non-lesioned animals”.

**Q.** What about the “Increase in neuronal phospho-Akt (not total Akt) compared to control cultures” value (phospho-Akt) of the same molecule?
**A.** Its value is 4 fold.

**Q.** And the “Selectivity RARβ over RARα” value (RARα [13])?
**A.** Its value is 5 fold.

**Q.** And the “Neurite outgrowth of cerebellar neurons grown in the presence of myelin” value (cerebellar neurons)?
**A.** Its value is “causes the outgrowth of neurites”.
